Laboratory results from US10435399B2, “HDAC6 inhibitory heterocyclic compound” (TAKEDA PHARMACEUTICAL COMPANY LIMITED, priority 2017, dated 2019).

These compounds were tested against T1, HDAC6 enzyme (Homo sapiens, UniProt Q9UBN7) (assay: HDAC6 enzyme inhibitory activity (HDAC-Glo I/II Assay kit)). Settings: 10 μM; wells without enzyme = 100% inhibition; read-out: HDAC6 inhibitory rate (%) (10 μM).
T1 construct: transducing full length HDAC6 gene into Sf-9 insect cells; GST; purchased SignalChem; host or cells: Sf-9 insect cells
T1 sequence (Q9UBN7 1-1215): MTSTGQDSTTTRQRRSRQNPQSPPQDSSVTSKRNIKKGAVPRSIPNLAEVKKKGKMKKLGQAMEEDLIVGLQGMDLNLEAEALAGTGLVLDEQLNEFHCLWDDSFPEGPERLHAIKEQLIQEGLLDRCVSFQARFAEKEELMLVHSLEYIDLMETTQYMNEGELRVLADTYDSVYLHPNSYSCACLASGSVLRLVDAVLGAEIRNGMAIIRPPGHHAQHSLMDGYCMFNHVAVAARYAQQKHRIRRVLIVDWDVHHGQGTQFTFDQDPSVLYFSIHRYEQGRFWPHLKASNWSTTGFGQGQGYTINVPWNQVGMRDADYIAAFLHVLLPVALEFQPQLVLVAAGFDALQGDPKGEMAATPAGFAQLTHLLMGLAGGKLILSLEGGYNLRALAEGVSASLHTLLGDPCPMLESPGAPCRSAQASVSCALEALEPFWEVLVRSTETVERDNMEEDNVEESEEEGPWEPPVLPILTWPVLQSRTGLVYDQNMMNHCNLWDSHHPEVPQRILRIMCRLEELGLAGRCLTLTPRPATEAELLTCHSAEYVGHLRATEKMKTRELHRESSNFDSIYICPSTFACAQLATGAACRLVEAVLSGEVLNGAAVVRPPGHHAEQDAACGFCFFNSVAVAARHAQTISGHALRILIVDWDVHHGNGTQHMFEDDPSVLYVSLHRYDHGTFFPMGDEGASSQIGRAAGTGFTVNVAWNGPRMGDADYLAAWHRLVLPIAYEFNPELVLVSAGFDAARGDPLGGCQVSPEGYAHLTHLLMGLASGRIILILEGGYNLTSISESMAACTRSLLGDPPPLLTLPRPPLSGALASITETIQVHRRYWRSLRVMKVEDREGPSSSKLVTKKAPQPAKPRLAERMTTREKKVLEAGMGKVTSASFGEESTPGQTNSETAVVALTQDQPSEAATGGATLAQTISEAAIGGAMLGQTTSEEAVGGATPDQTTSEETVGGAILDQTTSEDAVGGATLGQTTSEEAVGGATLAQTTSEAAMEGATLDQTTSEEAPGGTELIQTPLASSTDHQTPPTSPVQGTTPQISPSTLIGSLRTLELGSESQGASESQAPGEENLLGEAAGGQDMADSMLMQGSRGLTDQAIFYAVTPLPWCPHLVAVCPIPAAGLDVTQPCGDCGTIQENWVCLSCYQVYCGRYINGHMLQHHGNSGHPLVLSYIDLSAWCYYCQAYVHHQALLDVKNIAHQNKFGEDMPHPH
Format: biochemical
How it was run: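 Test compound is preincubated 60 min at RT with full-length insect-cell HDAC6 in Tris-HCl pH 7.5 with 135 mM NaCl and 1 mM MgCl2. A 20 min room-temperature HDAC-Glo reaction follows, with luminescent read-out.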

inhibition at 10 µM	Compound
100%	CC(C)(C)OC(=O)N[C@@H]1COCC[C@H]1N1Cc2c(F)cc(-c3nnc(C(F)F)o3)cc2C1=O [Example 167, tert-butyl ((3S,4R)-4-(6-(5-(difluoromethyl)-1,3,4-oxadiazol-2-yl)-4-fluoro-1-oxo-1,3-dihydro-2H-isoindol-2-yl)tetrahydro-2H-pyran-3-yl)carbamate]
100%	CC(C)(C)OC(=O)N1CCOC[C@@H]1CN1Cc2c(F)cc(-c3nnc(C(F)F)o3)cc2C1=O [Example 168, tert-butyl (3S)-3-((6-(5-(difluoromethyl)-1,3,4-oxadiazol-2-yl)-4-fluoro-1-oxo-1,3-dihydro-2H-isoindol-2-yl)methyl)morpholine-4-carboxylate]
101%	N#Cc1cccc(-c2ccccc2N2Cc3ccc(-c4nnc(C(F)F)o4)cc3C2=O)c1 [Example 169, 2′-(6-(5-(difluoromethyl)-1,3,4-oxadiazol-2-yl)-1-oxo-1,3-dihydro-2H-isoindol-2-yl)biphenyl-3-carbonitrile]
102%	COc1cccc(-c2ccccc2N2Cc3ccc(-c4nnc(C(F)F)o4)cc3C2=O)c1 [Example 170, 6-(5-(difluoromethyl)-1,3,4-oxadiazol-2-yl)-2-(3′-methoxybiphenyl-2-yl)isoindolin-1-one]
101%	O=C1c2cc(-c3nnc(C(F)F)o3)ccc2CN1c1ccccc1-c1cccc(C(F)(F)F)c1 [Example 171, 6-(5-(difluoromethyl)-1,3,4-oxadiazol-2-yl)-2-(3′-(trifluoromethyl)biphenyl-2-yl)isoindolin-1-one]
100%	CS(=O)(=O)c1cccc(-c2ccccc2N2Cc3ccc(-c4nnc(C(F)F)o4)cc3C2=O)c1 [Example 172, 6-(5-(difluoromethyl)-1,3,4-oxadiazol-2-yl)-2-(3′-(methylsulfonyl)biphenyl-2-yl)isoindolin-1-one]
91%	N[C@@H]1CCCC[C@H]1N1Cc2c(F)cc(-c3nnc(C(F)F)o3)cc2C1=O [Example 173, 2-((1R,2R)-2-aminocyclohexyl)-6-(5-(difluoromethyl)-1,3,4-oxadiazol-2-yl)-4-fluoroisoindolin-1-one]
102%	O=C1c2cc(-c3nnc(C(F)F)o3)cc(F)c2CN1[C@@H]1COCC[C@H]1NC(=O)C(F)(F)C(F)(F)F [Example 174, N-((3S,4R)-3-(6-(5-(difluoromethyl)-1,3,4-oxadiazol-2-yl)-4-fluoro-1-oxo-1,3-dihydro-2H-isoindol-2-yl)tetrahydro-2H-pyran-4-yl)-2,2,3,3,3-pentafluoropropanamide]
100%	CC(C)(C(=O)N[C@@H]1CCOC[C@H]1N1Cc2c(F)cc(-c3nnc(C(F)F)o3)cc2C1=O)C(F)(F)F [Example 175, N-((3S,4R)-3-(6-(5-(difluoromethyl)-1,3,4-oxadiazol-2-yl)-4-fluoro-1-oxo-1,3-dihydro-2H-isoindol-2-yl)tetrahydro-2H-pyran-4-yl)-3,3,3-trifluoro-2,2-dimethylpropanamide]
100%	O=C1c2cc(-c3nnc(C(F)F)o3)cc(F)c2CN1[C@@H]1COCC[C@H]1NC(=O)C1(C(F)(F)F)CC1 [Example 176, N-((3S,4R)-3-(6-(5-(difluoromethyl)-1,3,4-oxadiazol-2-yl)-4-fluoro-1-oxo-1,3-dihydro-2H-isoindol-2-yl)tetrahydro-2H-pyran-4-yl)-1-(trifluoromethyl)cyclopropanecarboxamide]
97%	O=C1CCCN1[C@@H]1CCCC[C@H]1N1Cc2ncc(-c3nnc(C(F)F)o3)cc2C1=O [Example 177, 3-(5-(difluoromethyl)-1,3,4-oxadiazol-2-yl)-6-((1R,2R)-2-(2-oxopyrrolidin-1-yl)cyclohexyl)-6,7-dihydro-5H-pyrrolo[3,4-b]pyridin-5-one]
41%	CC1(C)OB(c2ccccc2N2Cc3ccc(-c4nnc(C(F)F)o4)cc3C2=O)OC1(C)C [Example 178, 6-(5-(difluoromethyl)-1,3,4-oxadiazol-2-yl)-2-(2-(4,4,5,5-tetramethyl-1,3,2-dioxaborolan-2-yl)phenyl)isoindolin-1-one]
100%	O=C1c2ccccc2CN1[C@@H]1CCCC[C@H]1N1Cc2ncc(-c3nnc(C(F)F)o3)cc2C1=O [Example 179, 3-(5-(difluoromethyl)-1,3,4-oxadiazol-2-yl)-6-((1R,2R)-2-(1-oxo-1,3-dihydro-2H-isoindol-2-yl)cyclohexyl)-6,7-dihydro-5H-pyrrolo[3,4-b]pyridin-5-one]
100%	O=C(N[C@@H]1CCOC[C@H]1N1Cc2c(F)cc(-c3nnc(C(F)F)o3)cc2C1=O)c1ccccc1Cl [Example 180, 2-chloro-N-((3S,4R)-3-(6-(5-(difluoromethyl)-1,3,4-oxadiazol-2-yl)-4-fluoro-1-oxo-1,3-dihydro-2H-isoindol-2-yl)tetrahydro-2H-pyran-4-yl)benzamide]
97%	O=C(N[C@@H]1CCOC[C@H]1N1Cc2c(F)cc(-c3nnc(C(F)F)o3)cc2C1=O)c1cccc(Cl)c1 [Example 181, 3-chloro-N-((3S,4R)-3-(6-(5-(difluoromethyl)-1,3,4-oxadiazol-2-yl)-4-fluoro-1-oxo-1,3-dihydro-2H-isoindol-2-yl)tetrahydro-2H-pyran-4-yl)benzamide]
99%	CCC(=O)N[C@@H]1CCCC[C@H]1N1Cc2c(F)cc(-c3nnc(C(F)F)o3)cc2C1=O [Example 182, N-((1R,2R)-2-(6-(5-(difluoromethyl)-1,3,4-oxadiazol-2-yl)-4-fluoro-1-oxo-1,3-dihydro-2H-isoindol-2-yl)cyclohexyl)propanamide]
99%	O=C1c2cc(-c3nnc(C(F)F)o3)cc(F)c2CN1[C@@H]1CCCC[C@H]1NC(=O)C(F)(F)F [Example 183, N-((1R,2R)-2-(6-(5-(difluoromethyl)-1,3,4-oxadiazol-2-yl)-4-fluoro-1-oxo-1,3-dihydro-2H-isoindol-2-yl)cyclohexyl)-2,2,2-trifluoroacetamide]
102%	CC(F)(F)C(=O)N[C@@H]1CCCC[C@H]1N1Cc2c(F)cc(-c3nnc(C(F)F)o3)cc2C1=O [Example 184, N-((1R,2R)-2-(6-(5-(difluoromethyl)-1,3,4-oxadiazol-2-yl)-4-fluoro-1-oxo-1,3-dihydro-2H-isoindol-2-yl)cyclohexyl)-2,2-difluoropropanamide]
100%	O=C(N[C@@H]1CCCC[C@H]1N1Cc2c(F)cc(-c3nnc(C(F)F)o3)cc2C1=O)[C@@H]1CC1(F)F [Example 185, (1S)-N-((1R,2R)-2-(6-(5-(difluoromethyl)-1,3,4-oxadiazol-2-yl)-4-fluoro-1-oxo-1,3-dihydro-2H-isoindol-2-yl)cyclohexyl)-2,2-difluorocyclopropanecarboxamide]
101%	O=C1c2cc(-c3nnc(C(F)F)o3)cnc2CN1[C@@H]1CCCC[C@H]1N1C(=O)c2ccccc2C1=O [Example 186, 2-((1R,2R)-2-(3-(5-(difluoromethyl)-1,3,4-oxadiazol-2-yl)-5-oxo-5,7-dihydro-6H-pyrrolo[3,4-b]pyridin-6-yl)cyclohexyl)-H-isoindole-1,3(2H)-dione]
92%	O=C1c2cc(-c3nnc(C(F)F)o3)ccc2CN1C1(C(=O)NCC(F)(F)F)CC1 [Example 187, 1-(6-(5-(difluoromethyl)-1,3,4-oxadiazol-2-yl)-1-oxo-1,3-dihydro-2H-isoindol-2-yl)-N-(2,2,2-trifluoroethyl)cyclopropanecarboxamide]
98%	Cn1cc(-c2ccccc2)c(N2Cc3ccc(-c4nnc(C(F)F)o4)cc3C2=O)n1 [Example 188, 6-(5-(difluoromethyl)-1,3,4-oxadiazol-2-yl)-2-(1-methyl-4-phenyl-1H-pyrazol-3-yl)isoindolin-1-one]
100%	O=C(N[C@@H]1COCC[C@H]1N1Cc2c(F)cc(-c3nnc(C(F)F)o3)cc2C1=O)c1ccccc1Cl [Example 189, 2-chloro-N-((3S,4R)-4-(6-(5-(difluoromethyl)-1,3,4-oxadiazol-2-yl)-4-fluoro-1-oxo-1,3-dihydro-2H-isoindol-2-yl)tetrahydro-2H-pyran-3-yl)benzamide]
